Measured values from patent publication US12419824B2, “Compounds useful for the treatment and/or care of the skin, hair, nails and/or mucous membranes” (Lubrizol Advanced Materials, Inc., priority 2019, dated 2025).

Experiments:
Format in all cases: cell-based
[1] = tested on: Muscle bind like protein 1 (MBNL1); assay: MBNL1 quantification in human dermal fibroblasts by immunofluorescence (Example 8); settings: HDF, 1, 0.5 and 0.01 mg/ml, 24 hours, nuclear fluorescence normalized by nuclei
Procedure: MBNL1 induction by the peptides of the invention is evaluated by an Immunofluorescence assay. The aim of this study is to investigate the capacity of peptide candidates to increase MBNL1 in human dermal fibroblasts (HDF).
HDF (Cascade) are seeded in 96-well plates at a density of 8×10^3 cells/well in Fibroblast Growth Medium (Promocell). After 48 hours incubation, medium is removed and fresh medium with 1, 0.5 and 0.01 mg/ml of test items is added. Treatment is continued for 24 hours and non-treated cells are used as basal control. After 24 hours of treatment, an immunofluorescence is performed. Cells are fixed 15 minutes with 4% Paraformaldehide (Sigma), permeated 15 minutes with 1% Triton X-100 (Sigma) and then blocked with 5% Bovine Serum Albumin (Sigma). Next, primary antibody Anti-MBNL1 Rabbit (Sigma) is added and incubated for 2 hours. After that, secondary antibody Alexa Fluor™ 488 goat anti-rabbit IgG (Life Technologies) is added and incubated for 1 hour. To stain nuclei, Hoechst (Life Technologies) is added and incubated for 10 minutes. Finally, MBNL1 cell nuclei fluorescence intensity and nuclei number are measured by Operetta™ (Perkin Elmer). Fluorescence is normalized by cell nuclei and results are represented respect to basal control.

[2] = tested on: human muscular skeletal cells (hSKMC); assay: Prevention of TNF-α induced muscle mass loss in human skeletal muscle cells, immunofluorescence (Example 9); settings: 0.5 mg/ml with 20 ng/ml TNFα, 48 hours, myotube diameter threshold 20 μm
Procedure: Myosin heavy chain (MHyC) is used as a morphologic marker of differentiated myotubes allowing the measurement of their diameter, and therefore knowing their degree of mass loss. Tumor necrosis factor α (TNF-α) has been described in the literature as a muscle mass loss inductor.
Muscle mass loss prevention by the peptides of the invention is evaluated by an immunofluorescence assay. The aim of this study is to investigate the capacity of peptide candidates to prevent muscular mass loss in presence of TNF-α in human muscular skeletal cells (hSKMC).
hSKMC (Tebu-Bio) are seeded in 96-well plates at a density of 1.5×10^4 cells/well in Skeletal Muscle Cell Growth Medium (Promocell). After 24 hours incubation, medium is replaced with Skeletal Muscle Cell Differentiation Medium (Promocell) and cells are differentiated for 6 days. After this, fresh differentiation medium with 0.5 mg/ml of test items and 20 ng/ml of TNFα (Sigma) is added. Treatment is continued for 48 hours and non-treated cells are used as basal control and 20 ng/ml TNFα treated cells are used as a muscle mass loss control. […] Finally, myotube diameter is determined by imaging MHyC staining by Operetta™ (Perkin Elmer). Percentage of mass loss is automatically calculated with Harmony™ (Perkin Elmer) software by classifying myotubes according to their diameter using an atrophic threshold of 20 μm. […]

[3] = tested on: human subcutaneous pre-adipocytes; assay: Lipid accumulation in human subcutaneous pre-adipocytes, Adipored staining (Example 13); settings: coculture of young and old pre-adipocytes, 0.01 mg/ml, 12 days
Text: The aim of this study is to investigate the capacity of peptide candidates to induce lipid accumulation in human subcutaneous adipocytes, and therefore prevent adipocytes senescence. Measurement of lipid accumulation in a coculture of young and old adipose cells indirectly evaluates the inhibition of senescence-associated secretory phenotype (SASP). A pool of old adipose cells has a higher number of senescent cells. When cocultured with young cells, lipid accumulation observed is below the theoretically expected levels due to senescence induction effect of SASP on young adipocytes.
Induction of lipid accumulation by the peptides of the invention is evaluated by lipid fluorescent staining with Adipored® Assay Reagent. Human subcutaneous pre-adipocytes (donors, Cell applications) cells are cocultured in 96-well plates at a density of 4×10^3 cells/well each age in Human Preadipocyte Growth Medium (Sigma). Monoculture of each age are seeded at a density of 8×10^3 cells/well as age lipid accumulation controls. After 24 hours incubation, differentiation of pre-adipocytes into adipocytes is induced by changing medium to fresh Human Preadipocyte Differentiation Medium (Promocell). […] Finally, fluorescence intensity and nuclei number are measured by Operetta™ (Perkin Elmer). Fluorescence is normalized by cell nuclei and results are represented respect to cocultured basal control.

[4] = tested on: human muscular skeletal cells (hSKMC); assay: Alleviation (correction) of TNF-α induced muscle mass loss in human skeletal muscle cells, immunofluorescence (Example 10); settings: 0.01 mg/ml after 24 hours of 20 ng/ml TNFα, myotube diameter threshold 20 μm
Procedure: Muscle mass loss correction by the peptides of the invention is evaluated by an immunofluorescence assay. The aim of this study is to investigate the capacity of peptide candidates to correct muscular mass loss after treatment with TNF-α in human muscular skeletal cells (hSKMC). Myosin heavy chain (MHyC) is used as a morphologic marker of differentiated myotubes allowing the measurement of their diameter, and therefore knowing their degree of mass loss. Tumor necrosis factor α (TNF-α) has been described in the literature as a muscle mass loss inductor.
hSKMC (Tebu-Bio) are seeded in 96-well plates at a density of 1.5×10^4 cells/well in Skeletal Muscle Cell Growth Medium (Promocell). After 24 hours incubation, medium is replaced with Skeletal Muscle Cell Differentiation Medium (Promocell) and cells are differentiated for 6 days. After this, muscular cells mass loss is induced by adding fresh differentiation medium with 20 ng/ml TNFα (Sigma). Non-TNFα treated cells are used as basal mass loss control (BC). […] After 24 hours after the second treatment, immunofluorescence is determined. […] Finally, myotube diameter is determined by imaging MHyC staining by Operetta™ (Perkin Elmer). Percentage of mass loss is automatically calculated with Harmony™ (Perkin Elmer) software by classifying myotubes according to their diameter using a mass loss threshold of 20 μm.

Row | Substance | MBNL1 levels compared to the basal control [1] | muscle mass loss compared to TNF-α treatment (prevention) [2] | lipid accumulation compared to basal control and old control [3] | muscle mass loss compared to basal control treated with TNF-α (correction) [4]
1 | H-Ala-Leu-Lys-Pro-Asn-Thr-NH2 (H-ALKPNT-NH2) [PEP2] | increase MBNL1 levels | prevent mass loss | increase lipid accumulation in adipocytes | correct (i.e., reduces) mass loss
2 | Ac-Asp-Val-Tyr-Lys-NH2 (Ac-DVYK-NH2) [PEP1] | increase MBNL1 levels | prevent mass loss | increase lipid accumulation in adipocytes | correct (i.e., reduces) mass loss
